Measured values from paper PMC5917093, “Brain Transport Profiles of Ginsenoside Rb1 by Glucose Transporter 1: In Vitro and in Vivo” (Frontiers in Pharmacology, 2018).

Tests used:
GLUT1 [1] = experiment: Western blot, GLUT1 expression in normal rat brain; assay type: in vivo; details: phloretin 5 mg/kg i.v. for 1 week, P < 0.05
Protocol: Rats were randomly divided into two groups in 36 of each group. One group served as the control and another group were treated with phloretin. Dose of phloretin was set to be 5 mg/kg. Rb1 (10 mg/kg, i.v.) was administered to the experimental rats after i.v. administration of phloretin or saline for consecutive 1 week. Six rats from each group were selected and the blood samples were collected into heparinized Eppendorf tubes via the abdominal aorta at 0.5, 2, and 6 h after Rb1 administration. Then, brain samples were immediately collected. The plasma samples were obtained by centrifuging at 1000 × g for 10 min. Plasma and brain samples were frozen at -80°C until analysis. Total proteins were extracted and 60 μg of each protein was separated on SDS-10% polyacrylamide gels. Proteins on the gel were transferred to PVDF membrane (Merck-Millipore). Blots were blocked with 5% skimmed milk dissolved in PBS containing 0.1% Tween-20 (PBST) for 2 h at room temperature. The membrane was incubated with primary antibody at 4°C overnight. […] After washing, the chemiluminescence signal was monitored using the ChemiDoc XRS+ system (Bio-Rad, Hercules, CA, United States). Densitometric semi-quantitative analysis of protein bands was carried out using Image J.

rBMEC = experiment: Cell viability assessment, CCK-8 assay; details: 37°C, 4 h
Protocol: The cytotoxic effects of the test agents used in this study were assessed on confluent monolayers of cells in 96-well plates using a CCK-8 assay. Cells were subjected to a 200 μL/well of each drug in Hanks’ solution at the concentrations used in the experiments, followed by incubation for another 4 h. Then, 10 μL Cell Counting Kit-8 (CCK8, Dojindo) solution was added to each well. Plates were incubated for additional 4 h. Absorbance readings at 450 nm were obtained using a spectrophotometer (Thermo Varioskan) and expressed as percentage viability compared to control untreated cells.

GLUT3 = experiment: Western blot, GLUT3 expression in rBMEC; assay type: cell-based, rat; details: phloretin 5 μM together with Rb1 60 μg/mL
Protocol: (§1) Total proteins were extracted and 60 μg of each protein was separated on SDS-10% polyacrylamide gels. Proteins on the gel were transferred to PVDF membrane (Merck-Millipore). Blots were blocked with 5% skimmed milk dissolved in PBS containing 0.1% Tween-20 (PBST) for 2 h at room temperature. The membrane was incubated with primary antibody at 4°C overnight. Washing of the blots with PBST three times was followed by incubation with horseradish peroxidase-conjugated secondary antibody for 2 h at room temperature. After washing, the chemiluminescence signal was monitored using the ChemiDoc XRS+ system (Bio-Rad, Hercules, CA, United States). Densitometric semi-quantitative analysis of protein bands was carried out using Image J.

GLUT1 [2] = experiment: Western blot, GLUT1 expression in rBMEC; assay type: cell-based, rat; details: phloretin 5 μM together with Rb1 60 μg/mL; at 30, 60 and 120 min
Protocol: as §1

[3] = system: rBMEC (primary cultured rat brain microvascular endothelial cells); experiment: Transporter inhibition assays: Rb1 uptake into rBMEC in presence of inhibitors; assay type: in vitro ADME; details: Rb1 60 μg/mL, 37°C; for effect on Rb1 uptake into rBMEC versus control: 120 min
Protocol: In the present study, the uptake at 120 min was selected to measure the effect of test agents on the transport characteristics of Rb1. Rb1 concentration was set to be 60 μg/mL. The rBMEC was seeded out in 6-well plates, allowed to adhere, and grown to confluency. To study the transport mechanisms, uptake of Rb1 was carried out in the presence of a metabolic energy inhibitor and a series of established transporter inhibitors. The impact of these inhibitors on Rb1 uptake by rBMEC was assessed at the steady state at 37°C. NaN3 (500 μM), probenecid (100 μM), CsA (25, 50, and 100 μM), or phloretin (5 μM) was added to inhibit different transport systems. In the inhibition study, to further assess the effect of phloretin on Rb1 uptake into rBMEC, the cells were incubated at 37°C at a set time (5, 15, 30, 60, and 120 min). Uptake was measured after incubation with Rb1 in the presence of phloretin at the concentration of 5 μM.
HPLC–MS/MS was composed by a Shimadzu LC-20A chromatographic system and an API 4000 mass spectrometer equipped with electrospray ionization (ESI) source system. MS/MS detection was performed on an API 4000 mass spectrometer using multiple reaction monitoring (MRM) mode by monitoring the fragmentation of m/z 1107.6 → 179.0 for Rb1 and m/z 779.4 → 345.2 for digoxin (IS). Chromatographic separations were carried out on a Shim-pack XD-ODS column (2.0 mm × 30 mm, 2.2 μm) with a Shim-pack GVD-ODS (2.0 mm × 5 mm, 4.6 μm) guard column (Shimadzu, Japan) at a flow rate of 0.28 mL/min using 10 mM acetic acid in water (phase A) and methanol (phase B) as mobile phase. A linear step gradient elution was performed as followed: phase B was increased from 45 to 90% within the first 3 min, and decreased to 45% within the next 3 min (total gradient time: 6 min). A 10 μL sample was injected into the system with the auto-sample conditioned at 4°C and column temperature maintained at 40°C.
The biological samples (100 μL) were placed in a 1.5 mL Eppendorf tube, and mixed with 10 μL IS solution (500 ng/mL) for 3 min by vortexing. The mixture was extracted with methanol (0.9 mL) by vortexing, and then centrifuged at 14,000 rpm for 5 min. The supernatant (0.8 mL) was transferred to a new 1.5 mL Eppendorf tube and evaporated to dryness under vacuum. The dried residue was reconstituted with 100 μL methanol, vortex-mixed for 30 s, and centrifuged at 14,000 rpm for 5 min. Finally, 10 μL of the supernatant liquid was immediately subjected to HPLC–MS/MS analysis. The system control and data analysis were performed by AB Sciex Analyst software (the software version: Analyst 1.5.1).

[4] = design: method as in Li et al., 2007; details: rats, TPNS injection 10.0 mg/kg intravenous; ref Li et al., 2007; cited from earlier work
GLUT1 [5] = target: GLUT1; design: method as in Burant and Bell, 1992; details: ref Burant and Bell, 1992; read-out: Ki of GLUT1 for glucose; cited from earlier work
GLUT1 [6] = target: T1, GLUT1 (Rattus norvegicus, UniProt P11167); experiment: Competitive inhibition of Rb1 uptake by rBMEC by D-glucose (Lineweaver-Burk plot); assay type: in vitro ADME; details: 100 mM D-glucose, Rb1 30-960 μg/mL, 37°C, 120 min
T1 construct: GLUT1, as the major GLUT isoform expressed in brain endothelial cells; endogenous in cells; host or cells: primary cultured rat brain microvascular endothelial cells (rBMEC)
T1 sequence (P11167 1-492): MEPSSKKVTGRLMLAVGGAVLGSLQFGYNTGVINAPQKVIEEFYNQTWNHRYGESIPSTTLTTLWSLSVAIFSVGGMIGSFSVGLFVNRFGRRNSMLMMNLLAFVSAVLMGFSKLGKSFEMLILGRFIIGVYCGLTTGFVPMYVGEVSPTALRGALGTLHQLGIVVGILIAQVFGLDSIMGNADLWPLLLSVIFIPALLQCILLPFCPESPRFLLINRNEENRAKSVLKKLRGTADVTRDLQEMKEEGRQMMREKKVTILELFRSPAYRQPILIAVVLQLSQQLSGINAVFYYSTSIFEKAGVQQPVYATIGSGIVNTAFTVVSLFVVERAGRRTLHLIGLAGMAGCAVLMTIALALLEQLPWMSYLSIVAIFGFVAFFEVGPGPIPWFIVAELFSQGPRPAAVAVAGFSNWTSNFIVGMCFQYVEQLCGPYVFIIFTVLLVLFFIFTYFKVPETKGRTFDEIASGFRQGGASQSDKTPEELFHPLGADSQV
Protocol: In the competition experiments, Rb1 uptake (30–960 μg/mL) was measured in the absence and presence of D-glucose (100 mM) which is a principal physiological substrate of GLUT1. Briefly, cells were grown in 6-well plates for 7 days before their medium was removed, pre-incubated with warm glucose-free Hanks’ solution for 30 min. Subsequently, samples and controls were treated as described transport studies, but this time in addition with 100 mM D-glucose to the various concentrations of Rb1 in glucose-free Hanks’ solution at 37°C for 120 min.

O=C(CCc1ccc(O)cc1)c1c(O)cc(O)cc1O [phloretin]
expression level of GLUT1 in brain versus untreated normal rats (GLUT1 [1]): significantly decreased
viability of rBMEC versus control (CCK-8) (rBMEC; phloretin 5 μM): no statistically significant differences
expression level of GLUT3 in rBMEC versus control (GLUT3): no significant difference
expression level of GLUT1 in rBMEC versus control (GLUT1 [2]): significantly lower
effect on cell-to-medium (C/M) ratio of Rb1, time course ([3]; phloretin 5 μM, 5-120 min, especially from min 30 to 120): significantly decreased
effect on Rb1 uptake into rBMEC versus control ([3]; phloretin 5 μM, P < 0.01): significant decrease

CC(C)=CCC[C@](C)(O[C@@H]1O[C@H](CO)[C@@H](O)[C@H](O)[C@H]1O)[C@H]1CC[C@]2(C)[C@@H]1[C@H](O)C[C@@H]1[C@@]3(C)CC[C@H](O)C(C)(C)[C@@H]3[C@@H](O[C@@H]3O[C@H](CO)[C@@H](O)[C@H](O)[C@H]3O)C[C@]12C [Rg1, ginsenoside Rg1]
duration in brain tissue [4]: ~1 h
largest content in brain tissue [4]: about 0.2 μg/g

CCCN(CCC)S(=O)(=O)c1ccc(C(=O)O)cc1 [probenecid]
viability of rBMEC versus control (CCK-8) (rBMEC; probenecid 100 μM): no statistically significant differences
effect on Rb1 uptake into rBMEC versus control ([3]; probenecid 100 μM): no statistically significant differences

[N-]=[N+]=[N-].[Na+] [NaN3, sodium azide]
viability of rBMEC versus control (CCK-8) (rBMEC; NaN3 500 μM): no statistically significant differences
effect on Rb1 uptake into rBMEC versus control ([3]; NaN3 500 μM): no statistically significant differences

C=C1[C@@H](C)[C@H]2[C@H](Cc3ccccc3)NC(=O)[C@]23OC(=O)/C=C/C(=O)CCC[C@@H](C)C/C=C/[C@H]3[C@@H]1O [CsA, cytochalasin A]
viability of rBMEC versus control (CCK-8) (rBMEC; CsA 25, 50 and 100 μM): no statistically significant differences
effect on Rb1 uptake into rBMEC versus control ([3]; CsA 25, 50 and 100 μM): no statistically significant differences

OC[C@H]1OC(O)[C@H](O)[C@@H](O)[C@@H]1O (stereo partly drawn) [D-glucose]
Ki (GLUT1 [5]): ~1000 µM
Ki (GLUT1 [6]): 885 µM
